{"source": "ChEMBL document CHEMBL4665622", "about": "“Repurposing ibuprofen to control Staphylococcus aureus biofilms” (2019)", "key": {"Staphylococcus aureus [1]": {"test_system": "Staphylococcus aureus", "experiment": "Antibiofilm activity against Staphylococcus aureus RN4220 preform-matured biofilm assessed as reduction in CFU per cm2 at 10 times of MIC incubated upto 24 hrs", "assay_type": "functional", "conditions": "time hrs <=24"}, "Staphylococcus aureus [2]": {"test_system": "Staphylococcus aureus", "experiment": "Antibiofilm activity against Staphylococcus aureus RN4220 preform-matured biofilm assessed as reduction in CFU per cm2 at 5 times of MIC incubated upto 24 hrs", "assay_type": "functional", "conditions": "time hrs <=24"}, "Staphylococcus aureus [3]": {"test_system": "Staphylococcus aureus", "experiment": "Antibiofilm activity against Staphylococcus aureus SA1199B preform-matured biofilm assessed as reduction in CFU at 5 and 10 times of MIC incubated upto 24 hrs relative to control", "assay_type": "functional", "parameters": "scale not given: the % may be the effect or the level left", "conditions": "time hrs <=24"}, "Staphylococcus aureus [4]": {"test_system": "Staphylococcus aureus", "experiment": "Antibiofilm activity against Staphylococcus aureus XU212 preform-matured biofilm assessed as reduction in CFU upto 10 times of MIC incubated upto 24 hrs relative to control", "assay_type": "functional", "parameters": "scale not given: the % may be the effect or the level left", "conditions": "time hrs <=24"}, "Staphylococcus aureus [5]": {"test_system": "Staphylococcus aureus", "experiment": "Antibiofilm activity against Staphylococcus aureus SA1199B preform-matured biofilm assessed as increase in biofilm inactivation upto 10 times of MIC incubated upto 24 hrs relative to control", "assay_type": "functional", "conditions": "time hrs <=24"}, "Staphylococcus aureus [6]": {"test_system": "Staphylococcus aureus", "experiment": "Antibiofilm activity against Staphylococcus aureus XU212 preform-matured biofilm assessed as increase in biofilm removal at MIC incubated upto 24 hrs relative to control", "assay_type": "functional", "conditions": "time hrs <=24"}, "Staphylococcus aureus [7]": {"test_system": "Staphylococcus aureus", "experiment": "Antibiofilm activity against Staphylococcus aureus XU212 preform-matured biofilm assessed as increase in biofilm inactivation upto 10 times of MIC incubated upto 24 hrs relative to control", "assay_type": "functional", "conditions": "time hrs <=24"}, "Staphylococcus aureus [8]": {"test_system": "Staphylococcus aureus", "experiment": "Antibiofilm activity against Staphylococcus aureus XU212 preform-matured biofilm assessed as increase in biofilm removal at 5 and 10 times of MIC incubated upto 24 hrs relative to control", "assay_type": "functional", "conditions": "time hrs <=24"}, "Staphylococcus aureus [9]": {"test_system": "Staphylococcus aureus", "experiment": "Antibiofilm activity against Staphylococcus aureus SA1199B preform-matured biofilm assessed as increase in biofilm removal at 5 and 10 times of MIC incubated upto 24 hrs relative to control", "assay_type": "functional", "conditions": "time hrs <=24"}, "Staphylococcus aureus [10]": {"test_system": "Staphylococcus aureus", "experiment": "Antibiofilm activity against Staphylococcus aureus SA1199B preform-matured biofilm assessed as increase in biofilm removal at MIC incubated upto 24 hrs relative to control", "assay_type": "functional", "conditions": "time hrs <=24"}, "Staphylococcus aureus [11]": {"test_system": "Staphylococcus aureus", "experiment": "Antibiofilm activity against Staphylococcus aureus RN4220 preform-matured biofilm assessed as increase in biofilm removal at 5 and 10 times of MIC incubated upto 24 hrs relative to control", "assay_type": "functional", "conditions": "time hrs <=24"}, "Staphylococcus aureus [12]": {"test_system": "Staphylococcus aureus", "experiment": "Antibiofilm activity against Staphylococcus aureus RN4220 preform-matured biofilm assessed as increase in biofilm removal at MIC incubated upto 24 hrs relative to control", "assay_type": "functional", "conditions": "time hrs <=24"}, "Staphylococcus aureus [13]": {"test_system": "Staphylococcus aureus", "experiment": "Antibiofilm activity against Staphylococcus aureus CECT 976 preform-matured biofilm assessed as reduction in CFU per cm2 at MIC incubated for 6 hrs", "assay_type": "functional"}, "Staphylococcus aureus [14]": {"test_system": "Staphylococcus aureus", "experiment": "Antibiofilm activity against Staphylococcus aureus CECT 976 preform-matured biofilm assessed as reduction in CFU at MIC incubated for 24 hrs", "assay_type": "functional, organism-based"}, "Staphylococcus aureus [15]": {"test_system": "Staphylococcus aureus", "experiment": "Antibiofilm activity against Staphylococcus aureus RN4220 preform-matured biofilm assessed as increase in biofilm inactivation upto 10 times of MIC incubated upto 24 hrs relative to control", "assay_type": "functional", "conditions": "time hrs <=24"}, "Staphylococcus aureus [16]": {"test_system": "Staphylococcus aureus", "experiment": "Antibiofilm activity against Staphylococcus aureus CECT 976 preform-matured biofilm assessed as increase in biofilm inactivation at upto 10 times of MIC incubated upto 24 hrs relative to control", "assay_type": "functional", "conditions": "time hrs <=24"}, "Staphylococcus aureus [17]": {"test_system": "Staphylococcus aureus", "experiment": "Antibiofilm activity against Staphylococcus aureus CECT 976 preform-matured biofilm assessed as increase in biofilm removal at upto 10 times of MIC incubated for 24 hrs", "assay_type": "functional, organism-based", "conditions": "time 1.0 hrs"}, "Staphylococcus aureus [18]": {"test_system": "Staphylococcus aureus", "experiment": "Antibiofilm activity against Staphylococcus aureus CECT 976 preform-matured biofilm assessed as increase in biofilm removal at upto 10 times of MIC incubated for 1 hr", "assay_type": "functional, organism-based"}, "Staphylococcus aureus [19]": {"test_system": "Staphylococcus aureus", "experiment": "Antibiofilm activity against Staphylococcus aureus CECT 976 preform-matured biofilm assessed as increase in biofilm removal at 10 times of MIC incubated for 6 hrs relative to control", "assay_type": "functional"}, "Staphylococcus aureus [20]": {"test_system": "Staphylococcus aureus", "experiment": "Antibiofilm activity against Staphylococcus aureus CECT 976 preform-matured biofilm assessed as increase in biofilm removal at 5 times of MIC incubated for 6 hrs relative to control", "assay_type": "functional"}, "Staphylococcus aureus [21]": {"test_system": "Staphylococcus aureus", "experiment": "Antibiofilm activity against Staphylococcus aureus CECT 976 preform-matured biofilm assessed as increase in biofilm removal at MIC incubated for 6 hrs relative to control", "assay_type": "functional"}, "Staphylococcus aureus [22]": {"test_system": "Staphylococcus aureus", "experiment": "Inhibition of cell adhesion in Staphylococcus aureus CECT 976 assessed as decrease in CFU at 10 times of MIC incubated upto 24 hrs relative to control", "assay_type": "functional", "conditions": "time hrs <=24"}, "Staphylococcus aureus [23]": {"test_system": "Staphylococcus aureus", "experiment": "Inhibition of cell adhesion in Staphylococcus aureus CECT 976 assessed as decrease in biomass content incubated upto 24 hrs", "assay_type": "functional, organism-based", "conditions": "time hrs <=24"}, "Staphylococcus aureus [24]": {"test_system": "Staphylococcus aureus", "experiment": "Inhibition of cell adhesion in Staphylococcus aureus CECT 976 assessed as decrease in biomass content at upto 10 times of MIC incubated upto 24 hrs relative to control", "assay_type": "functional", "conditions": "time hrs <=24"}, "Cell membrane [25]": {"test_system": "Cell membrane", "experiment": "Effect on surface tension of Staphylococcus aureus CECT 976 assessed as hydrophobicity at MIC incubated for 1 hr (reference value: 34.8 +/- 1.3 mJ/m2)", "assay_type": "subcellular"}, "Cell membrane [26]": {"test_system": "Cell membrane", "experiment": "Effect on surface tension of Staphylococcus aureus CECT 976 assessed as hydrophobicity at 0.5 times of MIC incubated for 1 hr (reference value: 34.8 +/- 1.3 mJ/m2)", "assay_type": "subcellular"}, "Cell membrane [27]": {"test_system": "Cell membrane", "experiment": "Effect on surface tension of Staphylococcus aureus CECT 976 assessed as hydrophobicity at 0.25 times of MIC incubated for 1 hr (reference value: 34.8 +/- 1.3 mJ/m2)", "assay_type": "subcellular"}, "Cell membrane [28]": {"test_system": "Cell membrane", "experiment": "Effect on surface tension of Staphylococcus aureus CECT 976 assessed as electron donor component at MIC incubated for 1 hr (reference value: 55 +/- 0.9 mJ/m2)", "assay_type": "subcellular"}, "Cell membrane [29]": {"test_system": "Cell membrane", "experiment": "Effect on surface tension of Staphylococcus aureus CECT 976 assessed as electron donor component at 0.5 times of MIC incubated for 1 hr (reference value: 55 +/- 0.9 mJ/m2)", "assay_type": "subcellular"}, "Cell membrane [30]": {"test_system": "Cell membrane", "experiment": "Effect on surface tension of Staphylococcus aureus CECT 976 assessed as electron donor component at 0.25 times of MIC incubated for 1 hr (reference value: 55 +/- 0.9 mJ/m2)", "assay_type": "subcellular"}, "Cell membrane [31]": {"test_system": "Cell membrane", "experiment": "Effect on surface tension of Staphylococcus aureus CECT 976 assessed as electron acceptor component at MIC incubated for 1 hr (reference value: 0.5 +/- 0.1 mJ/m2)", "assay_type": "subcellular"}}, "note": "Calls of active or inactive are those of the source. The calls are words filed in the database; no cut-off is given here.", "data": [{"molecule": "CC(C)Cc1ccc(C(C)C(=O)O)cc1", "note": "(stereo unspecified) [IBUPROFEN]", "values": [{"measurement": "Activity", "setting": "Staphylococcus aureus [1]", "value": 2.5, "unit": "log10CFU"}, {"measurement": "Activity", "setting": "Staphylococcus aureus [2]", "value": 1.8, "unit": "log10CFU"}, {"measurement": "Activity", "setting": "Staphylococcus aureus [3]", "value": 100, "unit": "%"}, {"measurement": "Activity", "setting": "Staphylococcus aureus [4]", "value": 100, "unit": "%"}, {"measurement": "Activity", "setting": "Staphylococcus aureus [5]", "value": "<=55%"}, {"measurement": "Activity", "setting": "Staphylococcus aureus [6]", "value": "<=14%"}, {"measurement": "Activity", "setting": "Staphylococcus aureus [7]", "value": "<=55%"}, {"measurement": "Activity", "setting": "Staphylococcus aureus [8]", "value": 0, "unit": "%"}, {"measurement": "Activity", "setting": "Staphylococcus aureus [9]", "value": 0, "unit": "%"}, {"measurement": "Activity", "setting": "Staphylococcus aureus [10]", "value": "<=14%"}, {"measurement": "Activity", "setting": "Staphylococcus aureus [11]", "value": 0, "unit": "%"}, {"measurement": "Activity", "setting": "Staphylococcus aureus [12]", "value": "<=14%"}, {"measurement": "Activity", "setting": "Staphylococcus aureus [13]", "value": 0.8, "unit": "log10CFU"}, {"measurement": "inhibition", "setting": "Staphylococcus aureus [14]", "value": "Active"}, {"measurement": "Activity", "setting": "Staphylococcus aureus [15]", "value": "<=55%"}, {"measurement": "inhibition (INH)", "setting": "Staphylococcus aureus [16]", "value": "<=80%"}, {"measurement": "inhibition", "setting": "Staphylococcus aureus [17]", "value": "Dose-dependent effect"}, {"measurement": "inhibition", "setting": "Staphylococcus aureus [18]", "value": "Dose-dependent effect"}, {"measurement": "inhibition (INH)", "setting": "Staphylococcus aureus [19]", "value": 39, "unit": "%"}, {"measurement": "inhibition (INH)", "setting": "Staphylococcus aureus [20]", "value": 42, "unit": "%"}, {"measurement": "inhibition (INH)", "setting": "Staphylococcus aureus [21]", "value": 42, "unit": "%"}, {"measurement": "inhibition (INH)", "setting": "Staphylococcus aureus [22]", "value": 100, "unit": "%"}, {"measurement": "inhibition", "setting": "Staphylococcus aureus [23]", "value": "Dose-dependent effect"}, {"measurement": "inhibition (INH)", "setting": "Staphylococcus aureus [24]", "value": "<=38.5%"}, {"measurement": "Activity", "setting": "Cell membrane [25]", "value": 30.1, "unit": "mJ/m2"}, {"measurement": "Activity", "setting": "Cell membrane [26]", "value": 27.9, "unit": "mJ/m2"}, {"measurement": "Activity", "setting": "Cell membrane [27]", "value": 27.3, "unit": "mJ/m2"}, {"measurement": "Activity", "setting": "Cell membrane [28]", "value": 50, "unit": "mJ/m2"}, {"measurement": "Activity", "setting": "Cell membrane [29]", "value": 49.7, "unit": "mJ/m2"}, {"measurement": "Activity", "setting": "Cell membrane [30]", "value": 48.8, "unit": "mJ/m2"}, {"measurement": "Activity", "setting": "Cell membrane [31]", "value": 1.7, "unit": "mJ/m2"}]}]}
